According to patent publication US9078890B2, “Use of koumine and its homologues in preparation of medicament for treatment of autoimmune diseases of involved bones and joints” (priority 2011, dated 2015):
Marks after values point to notes of the source that are not given here.

Experiments:
[1] = system: type II collagen-induced arthritis rat; assay: Type II collagen-induced arthritis rat: condition and body weight; type: in vivo, Wistar rat
Procedure: (§1) Under aseptic conditions, 10 mg chicken type II collagen protein was fully mixed with 5 ml 10 mM glacial acetic acid solution, and stirred overnight in refrigerator at 4° C. to fully dissolve it. It was mixed with complete Freund's adjuvant in equal volume in ice bath to fully emulsify into an emulsion with a collagen concentration of 1 mg/ml.
(§2) Wistar rats are divided into a modeling group and a false modeling group. After the modeling group rats were narcotized with intraperitoneal injection of pentobarbital, the above emulsion was injected intracutaneously at 3 to 4 positions at back, tail root or the like, 0.3 ml for each, an primary immunity was carried out. After 7 days, a secondary immunity was carried out, the emulsifying agent complete Freund's adjuvant of initial immunity was replaced with incomplete Freund's adjuvant, 0.1 ml the emulsion was injected under sevoflurane inhalation anesthesia wherein the injection position is different from the last time. In false modeling group, the emulsion was replaced with solvent glacial acetic acid solution.
(§3) Successfully modeled rat in the modeling group were randomly divide into 5 groups: low, middle, high-dose koumine treatment group, positive control group, negative control group, 10 rats for each group. Beginning from Day 21 after modeling, corresponding intervention was carried out as following in 10 days continuously: 0.6, 3, 15 mg/kg koumine were intragastrically administrated to the low, middle, high-dose koumine treatment group respectively, 1 time every day; 1 mg/kg amethopterin was administrated to the positive control group, 1 time every 3 days, equal volume of physiological saline was administrated for the remained days; equal volume of physiological saline was administrated to the negative control group.

[2] = system: type II collagen-induced arthritis rat; assay: Type II collagen-induced arthritis rat: thermal hyperalgesia (thermal withdrawal latency); type: in vivo, Wistar rat; conditions: amethopterin 1 mg/kg once every 3 days
Procedure: as §1, §2, §3
1 hour after intragastric administration, the thermal withdrawal latency of each group was determined by the photo-thermal dolorimeter; the mechanical pain threshold of rats of each group was determined by Von-frey electromechanical pain threshold detector, thus the condition of thermal hyperalgesia and mechanical hyperalgesia of rats of each group was observed.

adjuvant arthritis mice = assay: Adjuvant arthritis mice: hyperalgesia (phlogogenic paw thermal withdrawal latency); type: in vivo, Kunming mice
Procedure: BCG was inactivated in water bath at 80° C., and fully emulsified along with complete Freund's adjuvant to form complete Freund's adjuvant emulsion containing 5 mg/ml BCG, preserved at 4° C., and shake well before use. The Kunming mice were divided into a modeling group and a false modeling group. According to the method recited in the literature [Rasool M, Sabina E P, Lavanya B. Anti-inflammatory effect of Spirulina fusiformis on adjuvant-induced arthritis in mice. Biol Pharm Bull. 2006, 29(12):2483-7], for the modeling group, the model was prepared by intradermal injection of 20 ul the emulsion under the plantar surface of right paws after the mice was narcotized; for the false modeling group, the emulsion was replaced with physiological saline. For the modeling group, the animals were screened on Day 8 after injection: the mice with the injected paw thickness increased >0.5 mm and thermal hyperalgesia occurred (paw thermal withdrawal latency <8 second) were selected as experimental subjects. The selected mice were divided into 5 groups randomly: low, middle, high dose treatment group (0.8, 4, 20 mg/kg); indomethacin positive control group (10 mg/kg); negative control group (physiological saline), each comprising 12 animals. Day 8 after inflammation, intragastric administration was carried out on each group to give corresponding intervention, one time per day for 10 days continuously.
30 min after intragastric administration, the phlogogenic paw thermal withdrawal latency of the mice in each group was determined by photo-thermal dolorimeter to reflect animals' hyperalgesia status.

SMILES	Body weight after intervention, Day 7 ([1]; amethopterin 1 mg/kg once every 3 days from Day 21, Day 7) [g]	Body weight after intervention, Day 14 ([1]; amethopterin 1 mg/kg once every 3 days from Day 21, Day 14) [g]	Body weight after intervention, Day 21 ([1]; amethopterin 1 mg/kg once every 3 days from Day 21, Day 21) [g]	Body weight after intervention, Day 31 ([1]; amethopterin 1 mg/kg once every 3 days from Day 21, Day 31) [g]	Body weight before intervention ([1]; amethopterin 1 mg/kg once every 3 days, from Day 21 after modeling for 10 days, before intervention) [g]	Thermal stimulus withdrawal latency, Before intervention ([2]; before intervention) [s]	Thermal stimulus withdrawal latency, Intervention Day 2 ([2]; intervention Day 2) [s]	Thermal stimulus withdrawal latency, Intervention Day 4 ([2]; intervention Day 4)	Thermal stimulus withdrawal latency, Intervention Day 6 ([2]; intervention Day 6)	Thermal stimulus withdrawal latency, Intervention Day 8 ([2]; intervention Day 8)	Thermal stimulus withdrawal latency, Intervention Day 10 ([2]; intervention Day 10)	Thermal stimulus withdrawal latency, Before intervention (adjuvant arthritis mice; indomethacin 10 mg/kg intragastric once daily for 10 days from Day 8 after inflammation, before intervention) [s]	Thermal stimulus withdrawal latency, Intervention Day 4 (adjuvant arthritis mice; indomethacin 10 mg/kg intragastric once daily from Day 8, Day 4)	Thermal stimulus withdrawal latency, Intervention Day 8 (adjuvant arthritis mice; indomethacin 10 mg/kg intragastric once daily from Day 8, Day 8)	Thermal stimulus withdrawal latency, Intervention Day 12 (adjuvant arthritis mice; indomethacin 10 mg/kg intragastric once daily from Day 8, Day 12)	Thermal stimulus withdrawal latency, Intervention Day 16 (adjuvant arthritis mice; indomethacin 10 mg/kg intragastric once daily from Day 8, Day 16)	Thermal stimulus withdrawal latency, Intervention Day 18 (adjuvant arthritis mice; indomethacin 10 mg/kg intragastric once daily from Day 8, Day 18)
CN(Cc1cnc2nc(N)nc(N)c2n1)c1ccc(C(=O)N[C@@H](CCC(=O)O)C(=O)O)cc1 [Positive control group, Amethopterin, reference compound]	154.5 ± 8.36	178.2 ± 5.93	203.1 ± 9.11	227.0 ± 12.68	129.8 ± 6.21	8.05 ± 1.01	8.48 ± 0.73	9.15 ± 0.57**^★★ second	9.27 ± 1.09**^★ second	9.50 ± 1.08**^★★ second	10.31 ± 1.21**^★ second	–	–	–	–	–	–
COc1ccc2c(c1)c(CC(=O)O)c(C)n2C(=O)c1ccc(Cl)cc1 [Positive control, Indomethacin, reference compound]	–	–	–	–	–	–	–	–	–	–	–	13.8 ± 1.2	5.9 ± 1.1^★★ second	4.1 ± 0.8^★★ second	8.9 ± 0.9**^★ second	9.8 ± 1.6**^★ second	10.1 ± 1.2**^★★ second
